This passage reports GI50 and TGI results from PubChem BioAssay (NCI).

Among the test systems are NCI-H23 lung; SNB-75 CNS; T-47D breast; HCT-15 colon; RPMI-8226 leukemia; IGROV1 ovarian; SR leukemia; A498 renal; U251 CNS; SF-295 CNS.
Common to all, as to assay: growth of human tumour cells (NCI), 48 h

SMILES strings stand for the structures.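 Assay format: 96-well plates, 48-hour exposure. The concentration for 50% growth inhibition is given as GI50. TGI: concentration producing complete growth inhibition.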 Some results are limits rather than exact numbers.

Regarding `COc1cc2ncnc(Nc3cccc(Cl)c3F)c2cc1OC(=O)N1CCN(C)C[C@H]1C`, the GI50 in the experiment with NCI-H23 lung is above 47.5 µM; in the experiment on SNB-75 CNS, 10.8 µM; in the experiment on T-47D breast, 2.47 µM; in the experiment with HCT-15 colon, above 41.4 µM; with RPMI-8226 leukemia, above 42.6 µM; in the experiment with IGROV1 ovarian, 0.888 µM. Also, the GI50 in the experiment with SR leukemia was above 45.8 µM; in the experiment on A498 renal, 3.44 µM; with U251 CNS it was above 44.2 µM; with SF-295 CNS it was above 38.1 µM. For the same molecule, the TGI in the experiment with NCI-H23 lung was 97.3 µM; with SNB-75 CNS it was above 50.1 µM; in the experiment with T-47D breast, above 45.5 µM; with HCT-15 colon it was above 88.8 µM; in the experiment with RPMI-8226 leukemia, above 68.2 µM; with IGROV1 ovarian, above 63.9 µM. The TGI was above 71.8 µM with SR leukemia, above 45.1 µM with A498 renal, above 64.5 µM with U251 CNS and above 56 µM with SF-295 CNS.
With `Cn1nc(C(F)(F)F)cc1-c1c[nH]c(OCc2ccc(Cl)cc2)c(-c2ccc(Cl)c(C(F)(F)F)c2)c1=O`, the GI50 is 1.05 µM in the experiment with NCI-H23 lung; 0.872 µM with SNB-75 CNS; 0.803 µM with T-47D breast; 0.784 µM with HCT-15 colon; 0.547 µM in the experiment on RPMI-8226 leukemia; 1.74 µM with IGROV1 ovarian. Further, the GI50 is 1.09 µM in the experiment with SR leukemia, 0.446 µM with A498 renal, 1.27 µM with U251 CNS and 0.887 µM in the experiment with SF-295 CNS. Moreover, the TGI is 5.95 µM with NCI-H23 lung; 2.72 µM with SNB-75 CNS; 3.27 µM in the experiment on T-47D breast; 5.07 µM in the experiment with HCT-15 colon; 2.24 µM with RPMI-8226 leukemia; above 40.5 µM in the experiment with IGROV1 ovarian. In addition, the TGI in the experiment on SR leukemia was above 14.3 µM; in the experiment on A498 renal, 1.31 µM; in the experiment with U251 CNS it was above 17.5 µM; in the experiment with SF-295 CNS, 2.18 µM.
In the case of `Cn1cc(C2=C(c3c4n(c5ccccc35)CCC(CN)C4)C(=O)NC2=O)c2ccccc21` (centres undefined), the GI50 in the experiment on NCI-H23 lung is 3.6 µM; in the experiment with SNB-75 CNS, 0.594 µM; with T-47D breast, 3.17 µM; in the experiment on HCT-15 colon it was 4.02 µM; in the experiment on RPMI-8226 leukemia, 3.93 µM; in the experiment with IGROV1 ovarian, 4 µM. In addition, the GI50 was 2.17 µM in the experiment with SR leukemia, 4.02 µM with A498 renal, 2.74 µM with U251 CNS and 2.31 µM with SF-295 CNS. For the same molecule, the TGI with NCI-H23 lung was 7.74 µM; in the experiment with SNB-75 CNS, 4.05 µM; with T-47D breast it was 7.49 µM; with HCT-15 colon, 8.65 µM; with RPMI-8226 leukemia, 9.61 µM; with IGROV1 ovarian, 8 µM. In addition, the TGI came to 7.81 µM with SR leukemia, 7.6 µM in the experiment with A498 renal, 6 µM in the experiment with U251 CNS and 6.09 µM with SF-295 CNS.
Regarding `N#C[Se]CCN1C(=O)C2C(C1=O)[C@H]1C=C[C@@H]2S1` (some centres undefined), the GI50 is 2.46 µM in the experiment on NCI-H23 lung; 1.39 µM in the experiment with SNB-75 CNS; 2.52 µM with T-47D breast; 2.2 µM in the experiment on HCT-15 colon; 2.04 µM in the experiment on RPMI-8226 leukemia; 1.59 µM with IGROV1 ovarian. The GI50 was 1.98 µM with SR leukemia, 1.51 µM in the experiment on A498 renal, 1.8 µM with U251 CNS and 1.83 µM in the experiment on SF-295 CNS. In addition, the TGI in the experiment with NCI-H23 lung is 6.51 µM; with SNB-75 CNS, 3.85 µM; in the experiment with T-47D breast it was 7.78 µM; in the experiment with HCT-15 colon it was 5.77 µM; in the experiment with RPMI-8226 leukemia, 4.84 µM; with IGROV1 ovarian, 3.48 µM. The TGI turned out to be 7.7 µM in the experiment on SR leukemia, 3.33 µM in the experiment with A498 renal, 4.13 µM in the experiment on U251 CNS and 3.35 µM in the experiment on SF-295 CNS.
Regarding `COc1cc(/C(=C2/O[C@@H]([C@H]3COC(C)(C)O3)[C@H]3OC(C)(C)O[C@@H]23)c2ccc3ccccc3c2)cc(OC)c1OC`, the GI50 is 5.43 µM in the experiment with NCI-H23 lung; 2.89 µM in the experiment with SNB-75 CNS; 3.45 µM in the experiment on T-47D breast; 76.8 µM in the experiment on HCT-15 colon; 33.3 µM in the experiment with RPMI-8226 leukemia; 3.3 µM with IGROV1 ovarian. Also, the GI50 in the experiment with SR leukemia was above 100 µM; in the experiment on A498 renal, 17.8 µM; in the experiment with U251 CNS it was 3.12 µM; in the experiment on SF-295 CNS it was 6.92 µM. Also, the TGI with NCI-H23 lung is above 100 µM; in the experiment on SNB-75 CNS, 7.44 µM; with T-47D breast it was 40.6 µM; in the experiment on HCT-15 colon it was above 100 µM; with RPMI-8226 leukemia, above 100 µM; in the experiment with IGROV1 ovarian it was 10.9 µM. For the same molecule, the TGI with SR leukemia was above 100 µM; with A498 renal, 74.6 µM; in the experiment with U251 CNS it was 11.8 µM; in the experiment with SF-295 CNS, 52.1 µM.
Take `COc1cccc(/C=N/NC(=O)c2ccccc2N2CCCC2)c1O`: the GI50 in the experiment with NCI-H23 lung is 7.85 µM; in the experiment with SNB-75 CNS it was 16.9 µM; in the experiment with T-47D breast, 3.02 µM; in the experiment on HCT-15 colon, 1.76 µM; in the experiment with RPMI-8226 leukemia, 3.74 µM; with IGROV1 ovarian it was 7.05 µM. In addition, the GI50 in the experiment on SR leukemia is 4.2 µM; with A498 renal it was 4.97 µM; with U251 CNS, 4.27 µM; with SF-295 CNS it was 4.88 µM. The TGI was above 100 µM in the experiment on NCI-H23 lung; above 100 µM with SNB-75 CNS; 36.9 µM with T-47D breast; above 100 µM in the experiment on HCT-15 colon; above 100 µM in the experiment with RPMI-8226 leukemia; above 100 µM in the experiment on IGROV1 ovarian. The TGI with SR leukemia, in the experiment with A498 renal, in the experiment with U251 CNS and in the experiment on SF-295 CNS was above 100 µM in each case.
Take `COc1ccc(Nc2cc(C)nc(NCc3ccccc3)n2)cc1`: the GI50 in the experiment on NCI-H23 lung is 3.55 µM; in the experiment on SNB-75 CNS, 4.65 µM; in the experiment with T-47D breast, 2.6 µM; with HCT-15 colon it was 2.8 µM; in the experiment on RPMI-8226 leukemia it was 1.81 µM; in the experiment on IGROV1 ovarian, 6.67 µM. The GI50 is 3.32 µM with SR leukemia, 1.83 µM in the experiment on A498 renal, 3.13 µM with U251 CNS and 2.57 µM in the experiment with SF-295 CNS. The TGI turned out to be 16.3 µM in the experiment on NCI-H23 lung; 18.8 µM with SNB-75 CNS; 11.3 µM in the experiment on T-47D breast; 11.9 µM in the experiment with HCT-15 colon; 7.41 µM in the experiment with RPMI-8226 leukemia; 23.4 µM in the experiment with IGROV1 ovarian. In addition, the TGI with SR leukemia was 13 µM; with A498 renal it was 13.6 µM; in the experiment on U251 CNS it was 14.3 µM; with SF-295 CNS, 15.3 µM.
For the molecule `CN1CCC2(CC1)NC(=O)c1c(c3ccc(Cl)c(Cl)c3n1C)C2C#N` (centres undefined), the GI50 is 11.4 µM in the experiment with NCI-H23 lung; 4.46 µM in the experiment on SNB-75 CNS; 5.45 µM with T-47D breast; 3.98 µM in the experiment with HCT-15 colon; 2.94 µM in the experiment with RPMI-8226 leukemia; 2.31 µM in the experiment on IGROV1 ovarian. For the same molecule, the GI50 with SR leukemia is 1.65 µM; in the experiment on A498 renal it was 9.05 µM; with U251 CNS, 11.1 µM; in the experiment with SF-295 CNS, 10 µM. For the same molecule, the TGI in the experiment on NCI-H23 lung was 25.7 µM; in the experiment with SNB-75 CNS it was 18.8 µM; with T-47D breast, 20.3 µM; with HCT-15 colon, 15.6 µM; in the experiment on RPMI-8226 leukemia it was 13.3 µM; with IGROV1 ovarian, 7.21 µM. The TGI with SR leukemia is 5.36 µM; in the experiment on A498 renal, 24.1 µM; in the experiment on U251 CNS it was 26.2 µM; in the experiment with SF-295 CNS it was 25.3 µM.
As for `C#CCN(Cc1nc2cc(C(F)(F)F)ccc2nc1-c1ccccc1)c1ccc(C)cc1`, the GI50 in the experiment with NCI-H23 lung was 8.48 µM; in the experiment with T-47D breast, 2.85 µM; with HCT-15 colon it was 6.01 µM; in the experiment with RPMI-8226 leukemia, above 48.5 µM; in the experiment with IGROV1 ovarian, 6.13 µM; in the experiment with SR leukemia, 16.1 µM. Moreover, the figures for the GI50 in the experiment on A498 renal, in the experiment on U251 CNS and in the experiment on SF-295 CNS were 10.6 µM, 11.6 µM and 4.78 µM, respectively. Also, the TGI with NCI-H23 lung is above 34.7 µM; in the experiment with SNB-75 CNS it was above 25.2 µM; in the experiment with T-47D breast, 31.6 µM; in the experiment with HCT-15 colon it was above 24.8 µM; in the experiment on RPMI-8226 leukemia it was above 76.3 µM; in the experiment with IGROV1 ovarian, above 64.9 µM. Also, the TGI in the experiment with SR leukemia was 41.3 µM; with A498 renal, 27.5 µM; in the experiment on U251 CNS, above 38.1 µM; with SF-295 CNS it was above 31.8 µM.
For the molecule `CC[C@@H](C(=O)[C@H](C)[C@H](O)[C@@H](C)[C@H]1O[C@H]([C@@H](CC)C(=O)N(CC)CC)CC[C@H]1C)C1O[C@]2(C=C[C@@H](O)[C@]3(CC[C@@](C)([C@H]4CC[C@](O)(CC)[C@H](C)O4)O3)O2)[C@H](C)C[C@@H]1C` (some centres undefined), the GI50 in the experiment with NCI-H23 lung was 2.81 µM; in the experiment with SNB-75 CNS it was 1.72 µM; in the experiment on T-47D breast, 2.44 µM; in the experiment on HCT-15 colon, 2.64 µM; with RPMI-8226 leukemia, 2.05 µM; in the experiment on IGROV1 ovarian, 2.73 µM. Besides, the GI50 in the experiment on SR leukemia is 2.91 µM; in the experiment on A498 renal, 2.44 µM; in the experiment on U251 CNS, 3.33 µM; in the experiment on SF-295 CNS, 2.49 µM. The TGI in the experiment with NCI-H23 lung turned out to be 8.94 µM; in the experiment with SNB-75 CNS, 11.1 µM; with T-47D breast it was 13.7 µM; in the experiment on HCT-15 colon it was 8.28 µM; with RPMI-8226 leukemia it was 6.15 µM; with IGROV1 ovarian it was 10.8 µM. Besides, the TGI in the experiment with SR leukemia was found to be 13.6 µM; in the experiment on A498 renal, 8.21 µM; with U251 CNS, 14 µM; in the experiment on SF-295 CNS, 9.81 µM.
For the molecule `CC1(C)CC[C@]2(C(=O)O)CC[C@]3(C)C(=CC[C@@H]4[C@@]5(C)C[C@H](O)[C@H](O)[C@@](C)(C(=O)O)[C@@H]5CC[C@]43C)[C@@H]2C1`, the TGI in the experiment on NCI-H23 lung, with SNB-75 CNS, in the experiment on T-47D breast, with HCT-15 colon, in the experiment with RPMI-8226 leukemia and with IGROV1 ovarian was above 100 µM in each case. The TGI in the experiment on SR leukemia, in the experiment with A498 renal, in the experiment with U251 CNS and in the experiment with SF-295 CNS was above 100 µM in each case.
